What was measured:
[1] = target: T1, HaGST (recombinant rHaGST, delta-class glutathione S-transferase; GenBank EF033109 / ABK40535) (Helicoverpa armigera, UniProt A0MSN0)
T1 sequence (A0MSN0 1-220): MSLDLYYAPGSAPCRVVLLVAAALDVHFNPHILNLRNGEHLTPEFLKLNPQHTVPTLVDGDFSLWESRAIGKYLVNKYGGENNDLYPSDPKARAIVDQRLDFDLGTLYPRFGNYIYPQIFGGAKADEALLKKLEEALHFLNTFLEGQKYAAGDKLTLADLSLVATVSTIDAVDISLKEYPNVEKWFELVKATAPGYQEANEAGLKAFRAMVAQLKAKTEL

[2] = target: T1, HaGST (recombinant rHaGST, delta-class glutathione S-transferase; GenBank EF033109 / ABK40535); assay: GSH/CDNB conjugation assay at […] nm with purified rHaGST; Lineweaver-Burk plot; format: biochemical; design: His-tagged full-length rHaGST expressed from pET-28a in E. coli BL-21 (DE-3), Ni-NTA purified; 220 residues

SMILES: N[C@@H](CCC(=O)N[C@@H](CS)C(=O)NCC(=O)O)C(=O)O [GSH, glutathione]
- enzyme kinetics of purified rHaGST with variable GSH (Lineweaver-Burk), CDNB as [1]: the rHaGST activity was calculated under different concentrations of GSH

SMILES: C[C@@]12C(=O)OC(=O)[C@]1(C)[C@H]1CC[C@@H]2O1 [cantharidin]
- IC50 [2]: 12.5 µM
